The source made the active and inactive calls.
Legend:
[1] = target: T1, Histone-lysine N-methyltransferase NSD2 (Homo sapiens, UniProt O96028); assay type: biochemical
T1 sequence (O96028 whole entry): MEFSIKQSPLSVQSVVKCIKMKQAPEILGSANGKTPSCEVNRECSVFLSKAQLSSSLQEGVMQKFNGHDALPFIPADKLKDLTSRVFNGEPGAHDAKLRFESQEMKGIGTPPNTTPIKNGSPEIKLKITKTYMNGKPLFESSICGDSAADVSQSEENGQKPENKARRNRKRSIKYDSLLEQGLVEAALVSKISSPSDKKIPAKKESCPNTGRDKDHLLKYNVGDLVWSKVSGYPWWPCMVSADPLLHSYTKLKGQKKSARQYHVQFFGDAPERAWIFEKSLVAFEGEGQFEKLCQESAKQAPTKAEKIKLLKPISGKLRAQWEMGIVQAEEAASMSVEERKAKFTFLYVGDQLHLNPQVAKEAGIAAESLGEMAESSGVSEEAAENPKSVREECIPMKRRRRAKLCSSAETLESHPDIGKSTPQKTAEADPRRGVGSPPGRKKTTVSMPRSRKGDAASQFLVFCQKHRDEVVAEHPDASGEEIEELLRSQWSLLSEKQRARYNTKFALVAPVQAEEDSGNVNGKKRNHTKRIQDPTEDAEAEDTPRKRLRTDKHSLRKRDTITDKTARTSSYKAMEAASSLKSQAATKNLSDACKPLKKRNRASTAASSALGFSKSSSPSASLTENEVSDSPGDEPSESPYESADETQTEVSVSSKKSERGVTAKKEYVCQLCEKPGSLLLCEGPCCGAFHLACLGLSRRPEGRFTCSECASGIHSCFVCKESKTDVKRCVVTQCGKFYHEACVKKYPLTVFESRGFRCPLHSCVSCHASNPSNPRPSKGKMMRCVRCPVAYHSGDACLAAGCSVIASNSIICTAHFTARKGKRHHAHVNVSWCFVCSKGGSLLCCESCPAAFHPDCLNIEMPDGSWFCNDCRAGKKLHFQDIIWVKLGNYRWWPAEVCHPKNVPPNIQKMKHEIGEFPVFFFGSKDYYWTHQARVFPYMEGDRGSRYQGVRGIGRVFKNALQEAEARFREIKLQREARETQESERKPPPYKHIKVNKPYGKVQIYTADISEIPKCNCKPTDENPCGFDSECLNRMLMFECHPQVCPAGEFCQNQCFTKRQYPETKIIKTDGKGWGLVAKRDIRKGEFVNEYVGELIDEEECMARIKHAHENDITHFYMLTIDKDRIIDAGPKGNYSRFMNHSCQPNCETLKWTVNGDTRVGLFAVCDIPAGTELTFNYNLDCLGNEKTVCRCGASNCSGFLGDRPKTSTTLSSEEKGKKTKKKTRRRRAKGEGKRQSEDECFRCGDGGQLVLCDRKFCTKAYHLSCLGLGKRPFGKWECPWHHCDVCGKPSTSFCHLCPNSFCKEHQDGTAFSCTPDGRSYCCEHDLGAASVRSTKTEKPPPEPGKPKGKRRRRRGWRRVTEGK

[2] = target: T2, Zinc finger protein mex-5 (Caenorhabditis elegans, UniProt Q9XUB2); experiment: potency of MEX-5 RNA-binding blockers – biochemical, C. elegans, fluorescence polarization, dose response (AID 1960)
T2 sequence (Q9XUB2 whole entry): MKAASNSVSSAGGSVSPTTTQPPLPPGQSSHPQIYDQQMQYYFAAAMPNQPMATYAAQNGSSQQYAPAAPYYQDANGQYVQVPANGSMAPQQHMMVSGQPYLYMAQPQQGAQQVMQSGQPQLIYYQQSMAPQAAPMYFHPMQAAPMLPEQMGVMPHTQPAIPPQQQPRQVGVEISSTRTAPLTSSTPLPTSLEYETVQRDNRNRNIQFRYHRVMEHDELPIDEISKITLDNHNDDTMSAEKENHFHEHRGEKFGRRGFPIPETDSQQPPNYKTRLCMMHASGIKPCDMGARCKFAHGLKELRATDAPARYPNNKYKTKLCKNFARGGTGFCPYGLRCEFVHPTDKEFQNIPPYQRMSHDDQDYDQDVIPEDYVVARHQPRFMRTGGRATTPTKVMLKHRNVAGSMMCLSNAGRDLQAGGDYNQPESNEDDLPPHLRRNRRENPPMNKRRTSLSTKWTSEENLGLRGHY

Protein Tat = Protein Tat (Human immunodeficiency virus type 1 group M subtype B (isolate HXB2)(HIV-1), UniProt P04608); assay type: functional;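 note: tat binding to TAR RNA read out by fluorescence polarization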
[3] = target: T3, RNA-binding protein pos-1 (Caenorhabditis elegans, UniProt G5EF15); experiment: disruptors of C. elegans POS-1 RNA interaction – biochemical, fluorescence polarization, dose response (AID 1964);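 note: purified POS-1 fused to maltose binding protein made in E. coli; potency of compounds blocking POS-1 binding to fluorescent RNA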
T3 sequence (G5EF15 whole entry): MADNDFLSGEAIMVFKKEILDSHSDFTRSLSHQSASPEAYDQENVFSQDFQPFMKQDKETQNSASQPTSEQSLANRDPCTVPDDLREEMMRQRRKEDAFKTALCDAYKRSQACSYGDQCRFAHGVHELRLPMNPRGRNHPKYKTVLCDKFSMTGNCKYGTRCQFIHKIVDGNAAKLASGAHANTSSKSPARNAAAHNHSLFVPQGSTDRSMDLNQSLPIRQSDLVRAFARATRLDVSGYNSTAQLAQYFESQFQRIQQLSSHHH

[4] = loss of viability in HepG2 cells – cell-based, CellTiter-Glo, cherry-picked, cytotoxicity control for Shn3 inhibitor project, dose response (AID 624134); assay type: functional
[5] = Shn3 3'UTR reporter signal decrease – cell-based, Clone20 osteoblasts, firefly luciferase, cherry-pick, set 2, Schnurri-3 inhibitor project, dose response (AID 720490); assay type: functional;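 note: actives lower the luminescence signal as inhibitors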
[6] = reduction of Shn3 3'UTR-driven luciferase in osteoblasts – cell-based, Clone20 osteoblasts, firefly luciferase, cherry-picked, dose response (AID 624132); assay type: functional;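 note: firefly luciferase luminescence from reporter carrying the Shn3 3'UTR in osteoblasts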
[7] = non-specific 3'UTR reporter inhibition in Clone20-Shn3RL – cell-based, Renilla luciferase, cherry-picked, counter-screen for Shn3 inhibitor project, dose response (AID 624133); assay type: functional
[8] = HEK293 Cytotoxicity Assay Measured in Cell-Based System Using Plate Reader - 7071-01_Inhibitor_Dose_CherryPick_Activity_Set2.; assay type: functional
HEK293 = experiment: viability loss in HEK293T cells – cell-based, ATP luminescence, cherry-pick samples, cytotoxicity control, dose response (AID 687005); assay type: functional; conditions: Homo sapiens;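 note: cells exposed to compound for 48 hours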
[9] = P. falciparum Dd2 growth inhibitors, dose response, SYBR Green, cherry-picked samples (AID 1159567); assay type: functional, cell-based
[10] = toxicity to human hepatoma HepG2 cells – cell-based, cherry-picked samples, cytotoxicity control, dose response (AID 1159577); assay type: functional
[11] = toxicity to human HepG2 hepatoma cells – cell-based, plate reader, dry powder samples, cytotoxicity control, dose response (AID 1159569); assay type: functional;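 note: inhibitor potency with signal falling toward the positive control level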
[12] = growth inhibition of yeast DHODH-expressing 3D7 parasites – SYBR Green, dry powder samples, dose response (AID 1159570); assay type: functional, cell-based;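 note: parasite growth measured after 72 hours of compound exposure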
[13] = Dd2 malaria parasite growth inhibition potency – SYBR Green, dry powder samples, dose response (AID 1159566); assay type: functional, cell-based;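 note: potency for growth inhibition with lower SYBR green DNA signal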
[14] = growth inhibition of PfATP4-mutant resistant parasites – NITD609-resistant line, SYBR Green, dry powder, dose response (AID 1159571); assay type: functional, cell-based;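 note: parasites synchronized at ring stage by sorbitol before testing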
[15] = RKO cell viability reduction, dose response, CellTiter-Glo luminescence (AID 1117322); assay type: functional
[16] = cytotoxicity toward HCT116 cells – cell-based, CellTiter-Glo luminescence, IC50, dose response (AID 1117332); assay type: functional; conditions: HCT-116
Large T antigen = Large T antigen (Simian virus 40, UniProt P03070); assay type: functional, Betapolyomavirus macacae;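 note: Confirmatory-stage PubChem screen for compounds that inhibit SV40 T antigen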
[17] = cytotoxicity toward Colo320 cells – cell-based, CellTiter-Glo luminescence, IC50, dose response (AID 1117334); assay type: functional; conditions: COLO 320
[18] = SNU-C1 cell viability reduction, dose response, CellTiter-Glo luminescence (AID 1117323); assay type: functional, cell-based
[19] = HCT116 cell viability decrease, GSK3B pretreatment – CellTiter-Glo, IC50, dose response (AID 1117339); assay type: functional; conditions: HCT-116
[20] = CellTiter-Glo luminescence survival assay, SW480 colon tumor line, concentration-response curve, half-maximal inhibitory concentration (AID 1117338); assay type: functional
[21] = HPDE-C7 pancreatic duct cell viability loss – fluorescence, HTS (AID 430); assay type: functional, cell-based; conditions: Homo sapiens
[22] = viability loss of HPDE-C7K cells – cell-based, fluorescence, HTS, primary screen (AID 431); assay type: functional; conditions: Homo sapiens
[23] = Reduced DLD-1 viability, concentration-response, CellTiter-Glo luminescence (AID 1117352); assay type: functional
[24] = Potency on glucagon-like peptide 1 release, dose-response in NCI-H716 cell line, half maximal inhibitory concentration (AID 1117344); assay type: functional, cell-based

Chain of Protein Tat (P04608 whole entry, the tested form may be a part): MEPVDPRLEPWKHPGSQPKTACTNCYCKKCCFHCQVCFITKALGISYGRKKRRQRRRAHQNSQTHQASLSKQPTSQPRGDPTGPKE
Chain of Large T antigen (P03070 whole entry): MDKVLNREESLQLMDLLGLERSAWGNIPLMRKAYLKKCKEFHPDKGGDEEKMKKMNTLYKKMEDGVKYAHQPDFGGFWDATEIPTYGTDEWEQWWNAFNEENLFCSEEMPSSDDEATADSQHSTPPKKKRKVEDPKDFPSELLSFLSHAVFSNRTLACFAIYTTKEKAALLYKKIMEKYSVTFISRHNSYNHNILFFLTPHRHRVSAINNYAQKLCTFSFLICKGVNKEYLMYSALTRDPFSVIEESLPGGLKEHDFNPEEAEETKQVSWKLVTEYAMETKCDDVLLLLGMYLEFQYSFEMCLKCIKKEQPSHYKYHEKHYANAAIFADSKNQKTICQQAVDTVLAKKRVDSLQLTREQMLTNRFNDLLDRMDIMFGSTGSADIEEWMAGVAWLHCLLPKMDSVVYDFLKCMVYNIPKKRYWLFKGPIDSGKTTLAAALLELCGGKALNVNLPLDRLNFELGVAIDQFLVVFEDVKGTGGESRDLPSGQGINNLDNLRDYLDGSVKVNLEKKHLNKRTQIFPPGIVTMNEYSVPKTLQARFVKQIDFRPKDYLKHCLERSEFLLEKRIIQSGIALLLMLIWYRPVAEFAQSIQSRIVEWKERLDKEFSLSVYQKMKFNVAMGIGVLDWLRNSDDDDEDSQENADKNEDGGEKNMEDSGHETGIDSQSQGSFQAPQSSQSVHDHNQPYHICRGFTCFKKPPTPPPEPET

SMILES: O=C(c1coc(=O)c(Br)c1)N1CCCc2ccccc21
- AC50 [1]: 12.2 µM (active)
- EC50 [2]: > 300 µM (not active)
- IC50 (Protein Tat): 4.84 µM (inconclusive)
- EC50 [3]: > 300 µM (not active)

SMILES: COc1ccc(CNC(=O)C(C)n2ccc3cc(S(=O)(=O)N4CCCCCC4)ccc32)cc1 (stereo not drawn)
- AC50 [4]: > 70 µM (inactive)
- AC50 [5]: 17.4 µM (active)
- AC50 [6]: 0.518 µM (active)

SMILES: CCOC(=O)c1oc2ccc(S(=O)(=O)n3nc(-c4ccc(OC)cc4)cc3N)cc2c1C
- AC50 [4]: 60 µM (active)
- AC50 [5]: 4.68 µM (active)
- AC50 [6]: 1.99 µM (active)
- AC50 [7]: 30 µM (active)

SMILES: Cc1cccc(-c2ccc([C@@H]3[C@@H](CO)N4CCCCN(S(=O)(=O)c5ccccc5C)C[C@@H]34)cc2)c1
- AC50 [8]: 19.3 µM (active)
- AC50 (HEK293): 19.3 µM (active)

SMILES: COc1cccc(-c2ccc([C@H]3[C@H](C#N)N(C(=O)Cc4ccncc4)[C@H]3CO)cc2)c1
- AC50 [9]: 4.28 µM (active)
- AC50 [10]: 33.8 µM (active)

SMILES: COc1cc(CN2C[C@@H]3N[C@H](C2)[C@H]3c2ccc(-c3ccncc3)cc2)cc(OC)c1
- AC50 [11]: 19.6 µM (active)
- AC50 [9]: 1.63 µM (active)
- AC50 [12]: 1.33 µM (active)
- AC50 [13]: 1.16 µM (active)
- AC50 [14]: 0.886 µM (active)

SMILES: N#C[C@@H]1[C@H](c2ccc(C#CC3CCCCC3)cc2)[C@@H](CO)N1C(=O)Cc1ccccn1
- AC50 [9]: 3.79 µM (active)
- AC50 [10]: > 39 µM (inactive)

SMILES: C=C(CC)C(=O)c1ccc(OCC(=O)O)c(Cl)c1Cl [ETHACRYNIC ACID]
- IC50 [15]: > 6.67 µM (inactive)
- IC50 [16]: > 20 µM (inactive)
- IC50 (Large T antigen): > 100 µM (active)
- IC50 [17]: > 20 µM (inactive)
- IC50 [18]: > 20 µM (inactive)
- IC50 [19]: 12.2 µM (inactive)
- IC50 [20]: > 6.67 µM (inactive)
- EC50 [21]: 10.4 µM (active)
- EC50 [22]: 11.3 µM (active)
- IC50 [23]: 11.9 µM (inactive)

SMILES: Cc1ccc(C(=O)Nc2ccc(S(=O)(=O)O)c3cc(S(=O)(=O)O)cc(S(=O)(=O)O)c23)cc1NC(=O)c1cccc(NC(=O)Nc2cccc(C(=O)Nc3cc(C(=O)Nc4ccc(S(=O)(=O)O)c5cc(S(=O)(=O)O)cc(S(=O)(=O)O)c45)ccc3C)c2)c1 [SURAMIN]
- IC50 [24]: > 40 µM (inactive)

From ChEMBL document CHEMBL1201862, “PubChem BioAssay data set” (2004)
